# In patent US20240174624A1, “CHIRAL N-(1,3,4-OXADIAZOLE-2-YL)PHENYL CARBOXYLIC ACID AMIDES AND THEIR USE AS HERBICIDES” (Bayer Aktiengesellschaft, priority 2021, published 2024):
# Tests used:
# ZEAMX [1] = assay: Post-emergence damage to crop plants; assay type: in vivo, Zea mays; settings: 80 g a.i./ha, comparative experiment
# Description: (§1) Seeds of monocotyledonous and dicotyledonous weed and crop plants are laid out in sandy loam soil in wood-fibre pots, covered with soil and cultivated in a greenhouse under good growth conditions. 2 to 3 weeks after sowing, the test plants are treated at the one-leaf stage. The compounds of the invention, formulated in the form of wettable powders (WP) or as emulsion concentrates (EC), are then sprayed onto the green parts of the plants in the form of an aqueous suspension or emulsion at a water application rate equating to 600 to 800 l/ha, with addition of 0.2% wetting agent. After the test plants have been left to stand in the greenhouse under optimal growth conditions for about 3 weeks, the action of the preparations is assessed visually in comparison to untreated controls (herbicidal action in percent (%): 100% activity=the plants have died, 0% activity=like control plants). […] The tables below illustrate, in an illustrative manner, the post-emergence herbicidal action of the compounds of the invention, the herbicidal activity being stated in percent. In the experiments that follow, the herbicidal action of the compounds of the invention and that of the corresponding known racemic compounds closest from WO2012126932 and WO2018202535 were compared under the above-specified conditions by the pre-emergence and post-emergence method. The example numbers given in the tables relate to the compounds disclosed in the respective documents.
# TRZAS [2] = assay: Pre-emergence damage to crop plants; assay type: in vivo, Triticum aestiva; settings: comparative experiment
# From the text: (§2) Seeds of monocotyledonous and dicotyledonous weed plants and crop plants are laid out in sandy loam soil in wood-fibre pots and covered with soil. The compounds of the invention, formulated in the form of wettable powders (WP) or as emulsion concentrates (EC), are then applied to the surface of the covering soil in the form of an aqueous suspension or emulsion at a water application rate equivalent to 600 to 800 l/ha, with addition of 0.2% wetting agent. After the treatment, the pots are placed in a greenhouse and kept under good growth conditions for the trial plants. The damage to the test plants is scored visually after a test period of 3 weeks by comparison with untreated controls (herbicidal activity in percent (%): 100% activity=the plants have died, 0% activity=like control plants). […] The tables below illustrate, in an illustrative manner, the post-emergence herbicidal action of the compounds of the invention, the herbicidal activity being stated in percent. In the experiments that follow, the herbicidal action of the compounds of the invention and that of the corresponding known racemic compounds closest from WO2012126932 and WO2018202535 were compared under the above-specified conditions by the pre-emergence and post-emergence method. The example numbers given in the tables relate to the compounds disclosed in the respective documents.
# ZEAMX [3] = assay: Pre-emergence damage to crop plants; assay type: in vivo, Zea mays; settings: 320 g a.i./ha, comparative experiment
# From the text: as §2
# ORYZA [4] = assay: Post-emergence damage to crop plants; assay type: in vivo, Oryza sativa; settings: comparative experiment
# Description: as §1
# TRZAS [5] = assay: Post-emergence damage to crop plants; assay type: in vivo, Triticum aestiva; settings: 80 g a.i./ha, comparative experiment
# Description: as §1
# ORYZA [6] = assay: Pre-emergence damage to crop plants; assay type: in vivo, Oryza sativa; settings: 80 g a.i./ha, comparative experiment
# From the text: as §2
# GLXMA = assay: Pre-emergence damage to crop plants; assay type: in vivo, Glycine max; settings: 80 g a.i./ha, comparative experiment
# From the text: as §2
# ECHCG [7] = assay: Post-emergence herbicidal action; assay type: in vivo, Echinochloa crus-galli; settings: for Herbicidal action against ECHCG: 5 g a.i./ha, comparative experiment; for Post-emergence action against ECHCG: assessed after about 3 weeks
# Description: as §1
# AMARE [8] = assay: Post-emergence herbicidal action; assay type: in vivo, Amaranthus retroflexus; settings: assessed after about 3 weeks
# Description: as §1, with “percent.” for “percent. In the experiments that follow, the herbicidal action of the compounds of the invention and that of the corresponding known racemic compounds closest from WO2012126932 and WO2018202535 were compared under the above-specified conditions by the pre-emergence and post-emergence method. The example numbers given in the tables relate to the compounds disclosed in the respective documents.”
# POLCO [9] = assay: Pre-emergence herbicidal action; assay type: in vivo, Polygonum convolvulus; settings: 80 g/ha, scored after 3 weeks
# From the text: as §2
# VIOTR [10] = assay: Pre-emergence herbicidal action; assay type: in vivo, Viola tricolor; settings: scored after 3 weeks
# From the text: as §2, with “percent.” for “percent. In the experiments that follow, the herbicidal action of the compounds of the invention and that of the corresponding known racemic compounds closest from WO2012126932 and WO2018202535 were compared under the above-specified conditions by the pre-emergence and post-emergence method. The example numbers given in the tables relate to the compounds disclosed in the respective documents.”
# PHBPU = assay: Post-emergence herbicidal action; assay type: in vivo, Pharbitis purpurea; settings: 20 g/ha, assessed after about 3 weeks
# Description: as §1, with “percent.” for “percent. In the experiments that follow, the herbicidal action of the compounds of the invention and that of the corresponding known racemic compounds closest from WO2012126932 and WO2018202535 were compared under the above-specified conditions by the pre-emergence and post-emergence method. The example numbers given in the tables relate to the compounds disclosed in the respective documents.”
# VIOTR [11] = assay: Post-emergence herbicidal action; assay type: in vivo, Viola tricolor; settings: assessed after about 3 weeks
# Description: as §1
# VERPE [12] = assay: Post-emergence herbicidal action; assay type: in vivo, Veronica persica; settings: assessed after about 3 weeks
# Description: as §1
# MATIN [13] = assay: Post-emergence herbicidal action; assay type: in vivo, Matricaria inodora; settings: assessed after about 3 weeks
# Description: as §1, with “percent.” for “percent. In the experiments that follow, the herbicidal action of the compounds of the invention and that of the corresponding known racemic compounds closest from WO2012126932 and WO2018202535 were compared under the above-specified conditions by the pre-emergence and post-emergence method. The example numbers given in the tables relate to the compounds disclosed in the respective documents.”
# MATIN [14] = assay: Pre-emergence herbicidal action; assay type: in vivo, Matricaria inodora; settings: scored after 3 weeks
# From the text: as §2
# ECHCG [15] = assay: Pre-emergence herbicidal action; assay type: in vivo, Echinochloa crus-galli; settings: scored after 3 weeks
# From the text: as §2, with “percent.” for “percent. In the experiments that follow, the herbicidal action of the compounds of the invention and that of the corresponding known racemic compounds closest from WO2012126932 and WO2018202535 were compared under the above-specified conditions by the pre-emergence and post-emergence method. The example numbers given in the tables relate to the compounds disclosed in the respective documents.”
# SETVI [16] = assay: Post-emergence herbicidal action; assay type: in vivo, Setaria viridis; settings: assessed after about 3 weeks
# Description: as §1
# AMARE [17] = assay: Pre-emergence herbicidal action; assay type: in vivo, Amaranthus retroflexus; settings: scored after 3 weeks
# From the text: as §2, with “percent.” for “percent. In the experiments that follow, the herbicidal action of the compounds of the invention and that of the corresponding known racemic compounds closest from WO2012126932 and WO2018202535 were compared under the above-specified conditions by the pre-emergence and post-emergence method. The example numbers given in the tables relate to the compounds disclosed in the respective documents.”
# VERPE [18] = assay: Pre-emergence herbicidal action; assay type: in vivo, Veronica persica; settings: scored after 3 weeks
# From the text: as §2
# SETVI [19] = assay: Pre-emergence herbicidal action; assay type: in vivo, Setaria viridis; settings: scored after 3 weeks
# From the text: as §2
# ALOMY = assay: Pre-emergence herbicidal action; assay type: in vivo, Alopecurus myosuroides; settings: 80 g/ha, scored after 3 weeks
# From the text: as §2
# AVEFA = assay: Pre-emergence herbicidal action; assay type: in vivo, Avena fatua; settings: 80 g/ha, scored after 3 weeks
# From the text: as §2
# POLCO [20] = assay: Post-emergence herbicidal action; assay type: in vivo, Polygonum convolvulus; settings: 20 g/ha, assessed after about 3 weeks
# Description: as §1, with “percent.” for “percent. In the experiments that follow, the herbicidal action of the compounds of the invention and that of the corresponding known racemic compounds closest from WO2012126932 and WO2018202535 were compared under the above-specified conditions by the pre-emergence and post-emergence method. The example numbers given in the tables relate to the compounds disclosed in the respective documents.”
# LOLRI = assay: Pre-emergence herbicidal action; assay type: in vivo, Lolium rigidum; settings: 80 g/ha, scored after 3 weeks
# From the text: as §2
smiles,measurement,setting,value
"C[S+]([O-])c1c(C(F)(F)F)ccc(C(=O)Nc2nnco2)c1Cl (racemic) [1-360, from WO2012126932, 2-chloro-N-(1,3,4-oxadiazol-2-yl)-3-[(rac)-methylsulfinyl]-4-(trifluoromethyl)benzamide, reference compound]",Damage to ZEAMX,ZEAMX [1],20%
same,Damage to TRZAS,TRZAS [2]; 80 g a.i./ha,80%
same,Damage to ZEAMX,ZEAMX [3],20%
same,Damage to ORYZA,ORYZA [4]; 80 g a.i./ha,100%
same,Damage to TRZAS,TRZAS [5],100%
same,Damage to ORYZA,ORYZA [6],100%
"C[S+]([O-])c1c(C(F)F)ccc(C(=O)Nc2nnco2)c1Cl (racemic) [Racemate, known from WO2018202535, 2-chloro-N-(1,3,4-oxadiazol-2-yl)-3-[(rac)-methylsulfinyl]-4-(difluoromethyl)benzamide, reference compound]",Damage to GLXMA,GLXMA,80%
same,Damage to TRZAS,TRZAS [2]; 20 g a.i./ha,70%
same,Damage to TRZAS,TRZAS [2]; 80 g a.i./ha,100%
same,Damage to ORYZA,ORYZA [4]; 5 g a.i./ha,60%
same,Herbicidal action against ECHCG,ECHCG [7],70%
"C[S+]([O-])c1c(C(F)F)ccc(C(=O)Nc2nnco2)c1Cl (stereo in doubt) [Example I-2, 2-chloro-N-(1,3,4-oxadiazol-2-yl)-3-[(S)-methylsulfinyl]-4-(difluoromethyl)benzamide]",Damage to GLXMA,GLXMA,30%
same,Damage to TRZAS,TRZAS [2]; 20 g a.i./ha,20%
same,Damage to TRZAS,TRZAS [2]; 80 g a.i./ha,70%
same,Post-emergence action against AMARE,AMARE [8]; 5 g/ha,100%
same,Post-emergence action against AMARE,AMARE [8]; 20 g/ha,100%
same,Pre-emergence action against POLCO,POLCO [9],90%
same,Pre-emergence action against VIOTR,VIOTR [10]; 20 g/ha,100%
same,Pre-emergence action against VIOTR,VIOTR [10]; 80 g/ha,100%
same,Post-emergence action against PHBPU,PHBPU,90%
same,Post-emergence action against VIOTR,VIOTR [11]; 5 g/ha,90%
same,Post-emergence action against VIOTR,VIOTR [11]; 20 g/ha,100%
same,Post-emergence action against VERPE,VERPE [12]; 5 g/ha,90%
same,Post-emergence action against VERPE,VERPE [12]; 20 g/ha,100%
same,Damage to ORYZA,ORYZA [4]; 5 g a.i./ha,0%
same,Post-emergence action against MATIN,MATIN [13]; 5 g/ha,90%
same,Post-emergence action against MATIN,MATIN [13]; 20 g/ha,90%
same,Pre-emergence action against MATIN,MATIN [14]; 20 g/ha,100%
same,Pre-emergence action against MATIN,MATIN [14]; 80 g/ha,100%
same,Pre-emergence action against ECHCG,ECHCG [15]; 20 g/ha,100%
same,Pre-emergence action against ECHCG,ECHCG [15]; 80 g/ha,100%
same,Post-emergence action against SETVI,SETVI [16]; 5 g/ha,90%
same,Post-emergence action against SETVI,SETVI [16]; 20 g/ha,90%
same,Pre-emergence action against AMARE,AMARE [17]; 20 g/ha,100%
same,Pre-emergence action against AMARE,AMARE [17]; 80 g/ha,100%
same,Pre-emergence action against VERPE,VERPE [18]; 20 g/ha,80%
same,Pre-emergence action against VERPE,VERPE [18]; 80 g/ha,80%
same,Pre-emergence action against SETVI,SETVI [19]; 20 g/ha,100%
same,Pre-emergence action against SETVI,SETVI [19]; 80 g/ha,100%
same,Pre-emergence action against ALOMY,ALOMY,90%
same,Pre-emergence action against AVEFA,AVEFA,100%
same,Herbicidal action against ECHCG,ECHCG [7],90%
same,Post-emergence action against ECHCG,ECHCG [7]; 5 g/ha,90%
same,Post-emergence action against ECHCG,ECHCG [7]; 20 g/ha,90%
same,Post-emergence action against POLCO,POLCO [20],80%
same,Pre-emergence action against LOLRI,LOLRI,90%
